Test results taken from patent US5506217A, “Phosphonates as anti-cancer agents” (The University of British Columbia, priority 1994, dated 1996).

Columns and labels:
P388 tumor cells = assay: colonogenic cell survival assay; type: cell-based; conditions: Mus musculus, 120 h, P388, soft agar, 5 days, read-out: Number of colonies Formed (% of Control)
Experimental: (§1) Inhibition of colony formation in soft agar medium (colonogenic cell survival assay) is a more rigorous and direct measurement of cell kill or growth inhibition, and reflects the anti-cancer activity of the test compound. Briefly, tumor cells were cultured in petri dishes in methylcellulose, with or without a phosphonate test compound, and the number of colonies formed during a 5-day incubation period were counted.
The efficacy of 4-hexadecylthio-3-methoxybutane phosphonocholine on the growth of a mouse […] tumor was evaluated. The P388 cell line was cultured in a soft agar in the presence and absence of various concentrations of thioalkylphosphonate for 5 days, the number of tumor colonies formed during this period of time was registered.

L1210 tumor cells = assay: colonogenic cell survival assay; type: cell-based; conditions: Mus musculus, 120 h, L1210, soft agar, read-out: Number of Colonies Formed (% of Control)
Experimental: as §1
The effectiveness of S-thioalkylphosphonate on the growth of a lymphoma cell line was also investigated. L1210 is a mouse B-Cell tumor (lymphoma), was tested in soft agar for susceptibility to the cytotoxic action of thioalkylphosphonate.

WEHI-3B cells = assay: WEHI-3B tumor growth under the skin in mice (S-thioalkylphosphonate); type: in vivo
Experimental: We also provide data on the activity of S-thioalkylphosphonate to delay growth of tumor in the mice. WEHI-3B cells were grown in mice under the skin. Three days after the injection of cancer cells the mice received daily 10 mg/kg thialkylphosphonate for 21 days. The control mice received the saline alone instead of the drug. After 21 days, the tumor volume was measured. […] The tumor volume was measured in CM^3.

[1] = test system: human colon carcinoma (HT29); assay: effect of S-thioalkylphosphonate on tumor cell line (% of control); type: cell-based; conditions: read-out: HT29 cells (% of control)
[2] = test system: RPMI7915 cells (human melanoma); assay: as above; type: cell-based

**Q.** What does the source list for `CCCCCCCCCCCCCCCCSCC(CCP(=O)([O-])OCC[N+](C)(C)C)OC` (stereo not shown) [S-Thioalkylphosphonocholine, 4-hexadecylthio-3-methoxybutane phosphonocholine]?
**A.** activity at 0.62 µM (P388 tumor cells; 0.62 μM): 55%; activity at 1.25 µM (P388 tumor cells; 1.25 μM): 43.7%; activity at 2.5 µM (P388 tumor cells; 2.5 μM): 41%; activity at 5 µM (P388 tumor cells; 5 μM): 29%; activity at 10 µM (P388 tumor cells; 10 μM): 3%; activity at 20 µM (P388 tumor cells; 20 μM): 1%; activity at 0.65 µM (L1210 tumor cells; 0.65 μM): 65%; activity at 1.25 µM (L1210 tumor cells; 1.25 μM): 47%; activity at 2.5 µM (L1210 tumor cells; 2.5 μM): 30.5%; activity at 5 µM (L1210 tumor cells; 5 μM): 30%; activity at 10 µM (L1210 tumor cells; 10 μM): 20.5%; activity at 20 µM (L1210 tumor cells; 20 μM): 14%; reduction of tumor size (WEHI-3B cells; after 21 days, daily 10 mg/kg): about 50%; Tumor Volume at Day 21 (WEHI-3B cells; daily 10 mg/kg for 21 days, from three days after injection of cancer cells): .0359 ± 0.128 cm^3; activity at 0.6 µM ([1]; HT-29, 0.6 μM): 99%; activity at 1.25 µM ([1]; HT-29, 1.25 μM): 83%; activity at 2.5 µM ([1]; HT-29, 2.5 μM): 71%; activity at 5 µM ([1]; HT-29, 5 μM): 54%; activity at 10 µM ([1]; HT-29, 10 μM): 45%; activity at 20 µM ([1]; HT-29, 20 μM): 18%; activity at 40 µM ([1]; HT-29, 40 μM): 1%; activity at 0.6 µM ([2]; RPMI-7951, 0.6 μM): 98%; activity at 1.25 µM ([2]; RPMI-7951, 1.25 μM): 80%; activity at 2.5 µM ([2]; RPMI-7951, 2.5 μM): 78%; activity at 5 µM ([2]; RPMI-7951, 5 μM): 63%; activity at 10 µM ([2]; RPMI-7951, 10 μM): 40%; activity at 20 µM ([2]; RPMI-7951, 20 μM): 29%; activity at 40 µM ([2]; RPMI-7951, 40 μM): 0%
